The values below come from US20110071124A1, “Compounds that Inhibit Production of sAPPB and AB and Uses Thereof” (The Trustees of Columbia University in the City of New York, priority 2008, published 2011).

Data set [1] concerns Aβ40 in Tg2576 primary cortical neurons. Put plainly: Aβ40 ELISA in Tg2576 primary cortical neurons. Type of data set: cell-based, mouse. The settings on record: 24 hours, normalized to total protein. The method, then:
FIG. 17A-B. LDN-0057228 and CNS-2 reduce Aβ40 and sAPPβ in Tg2576 primary neurons. Primary cortical neurons were cultured from P0 APPsw transgenic pups (Tg2576). DIV-14 neurons were treated for 24 hours with LDN-0057228 or CNS-2 at the indicated concentrations. Data from two independent experiments were pooled. A) Media was collected for Aβ40 ELISA. Raw Aβ40 values were normalized to total protein to control for variations in plating density or any cytotoxicity resulting from the compounds. B) sAPPβ in the media was immunoprecipitated with sβsw antibody and visualized on Western blot with LN27.
Culturing primary neurons from Tg2576 pups offers the advantage of equal APP expression, but suffers the drawback of lower yield since only half the pups contains the transgene. Furthermore, because neurons from each pup has to be plated separately, plating density and neuronal survivability may vary from mouse to mouse. Thus, total protein was used to normalize the data.
CNS-2 and LDN-0057228 were evaluated in the Tg2576 pup system (FIG. 17). Primary cortical neurons were harvested from P0 Tg2576 pups. Each pup yielded 3 wells on a 12-well plate at a plating density of 0.8×10^5 cells per well. After genotyping, neurons from each transgenic pup (APPsw +/−) were treated with DMSO, LDN-0057228 (20 μM), or CNS-2 (5 μM) at DIV-14 for 24 hours. […]
(In general: In an ELISA, binding on a coated surface is turned into a signal by an enzyme label.)

Data set [2] has as its system sAPPβ in Lenti-APPsw infected primary cortical neurons. Briefly: sAPPβ IP-Western in Lenti-APPsw infected primary cortical neurons. The settings on record: 20 μM, 24 hours, normalized to APP. Type of data set: cell-based, mouse. On the procedure:
FIG. 15A-D. LDN-0057228 reduces Aβ40 and sAPPβ in primary neurons. DIV-14 primary cortical neurons from wild-type mice were incubated for 24 hours with primary culture media containing lentivirus harboring APPsw. After infection, neurons were incubated for 48 hours with 1:1 fresh to conditioned media to allow for APP expression. Neurons were then treated with LDN-0057228 at 20 μM for 24 hours in triplicate. A) Media was collected for Aβ40 ELISA. Raw Aβ40 values were normalized to APP to control for variations in lentiviral infection efficiency. B) Cell lysates were probed with 6E10 antibody to visualize the transduced full-length APP. C) sAPPβ from neuron culture media was immunoprecipitated with sβsw antibody and probed with LN27. D) Quantification of sAPPβ, normalized to APP. Data in A) and […]) represent mean+s.d. of 3 wells. Bands from B) and C) were quantified using ImageJ software.
Using this experimental paradigm, LDN-0057228 was tested at 20 μM concentration to confirm the sAPPβ- and Aβ-lowering activity of the compound (FIG. 15). The protocol was modified slightly to allow for 24-hour compound treatment. […]
LDN-0057228 caused a 75% reduction in Aβ40 levels (p<0.05) in primary neurons (FIG. 15A). […] The sAPPβ bands were quantified using ImageJ software and normalized to APP, showing a 40% reduction in sAPPβ (p<0.01) for the treated neurons (FIG. 15D).

Data set [3] can be described thus: weight and overt toxicity in treated Tg2576 mice. Format: in vivo. The settings on record: 3 mg/kg intraperitoneal, 9 days. The method, then:
(§1) A total of 16 mice were treated with either DMSO (n=8) or 3 mg/kg CNS-2 (n=8). The dosage was selected arbitrarily based on compound solubility in 0.9% normal saline. CNS-2 was dissolved in 0.9% normal saline solution with 1.9% final DMSO concentration. 12- to 13-month old Tg2576 mice were treated with DMSO or CNS-2 via intraperitoneal injection for 9 days (1 injection per day) at an injection volume of 20 μl per gram of weight. Mouse weight was monitored daily, and the total injection volume adjusted accordingly over the course of the 9-day treatment. […] Mice were sacrificed on day 9, 5 hours after the final injection. One hemibrain from each mouse was homogenized and processed for formic acid extraction of plaque Aβ. Total Aβ40 was determined by Aβ ELISA kit and normalized to total protein (FIG. 18).

A further data set has as its system brain total Aβ40. Put plainly: brain total Aβ40 in Tg2576 mice after intraperitoneal injection. Format: in vivo. The conditions noted are these: 3 mg/kg intraperitoneal, 1 injection per day for 9 days, 12- to 13-month old Tg2576 mice; p value greater than 0.05. On the procedure: FIG. 18. CNS-2 reduces brain total Aβ40 in Tg2576 mice. CNS-2 was dissolved in 0.9% normal saline solution with 1.9% DMSO. 12 month old Tg2576 APPsw transgenic mice were treated with 3 mg/kg CNS-2 via intraperitoneal injection at an injection volume of 20 μl per gram. 8 mice per group were treated for 9 days, 1 injection per day. Mice were sacrificed on day 9, 5 hours after the final injection. One hemisphere from each mouse was homogenized, and the homogenate was processed for formic acid extraction of plaque Aβ. After formic acid extraction, total Aβ40 was measured via ELISA kit (BioSource) and normalized to total protein.
as §1, with “One hemibrain from each mouse was homogenized and processed for formic acid extraction of plaque Aβ.” left out

Regarding `Fc1ccc(C(OCCN2CCC[C@H]2CNCCc2ccccc2)c2ccc(F)cc2)cc1` [LDN-0057228], in data set [1] (20 μM), the “reduction in Aβ40” value is on record as 65%. Besides, the “reduction in sAPPβ” value in data set [2] turned out to be 40%.

Turning to `O=C(CCc1ccccc1)NC[C@@H]1CCCN1CCOC(c1ccc(F)cc1)c1ccc(F)cc1` [CNS-2], the “reduction in Aβ40” value in data set [1] (5 μM) came to 60%. Further, the “changes in weight and overt signs of toxicity” value in data set [3] was “Neither the treated nor control groups exhibited any significant changes in weight or any overt signs of toxicity”. Also, in the data set with brain total Aβ40, the “reduction of brain total Aβ40” value amounted to 30%.
